Laboratory results published in paper PMC5791972 (PLoS ONE, 2018).
“Also recorded” adds a separate entry of the source. Where two headings read alike, the source gives them in different places.

Assays:
[1] = target: Kv4.3 (Homo sapiens, UniProt Q9UK17); assay: Ion channel selectivity patch clamp; assay type: cell-based; settings: Voltage (+40 mV)
[2] = C57BL/6, mouse, in vivo
[3] = test system: basolateral amygdala neurons; assay: Slice recordings of CCK-4 induced EPSCs; assay type: cell-based, mouse
[4] = test system: C57BL/6J mice; assay: Pavlovian fear learning and memory, non-manipulated mice; assay type: in vivo, mouse; settings: 1 or 3 mg/kg oral, 2 h before
[5] = in vitro; settings: plasma
[6] = test system: NMRI mice; assay: Locomotor activity; assay type: in vivo, mouse; settings: 0.1, 3 or 10 mg/kg PO
Experimental: NMRI mice were habituated to their room for at least 2 weeks after the delivery and kept under standard conditions in groups of 4–5 animals per cage. Food and water were available ad libitum.
Spontaneous motility and rearing were measured by an automated system (Coulbourn Instruments, USA). Animals were introduced into transparent square cages (40 cm length) that are equipped with 2 light barrier systems in order to monitor the movements as well as rearing behavior automatically. The movements of the animals were recorded for 30 minutes. At the end of the experiment, the animals were sacrificed via isofluorane inhalation and subsequent decapitation.

[7] = target: 5-HT4e (h) (Homo sapiens, UniProt Q13639); assay: biochemical
[8] = target: PDE4D2 (h) (Homo sapiens, UniProt Q08499); assay: biochemical; settings: 1.0E-06 M
[9] = target: T1, β3 (h) (Homo sapiens, UniProt P13945); assay type: binding; settings: 1.0E-06 M
T1 construct: (endogenous); host or cells: SK-N-MC cells

[10] = target: 5-HT1D (Rattus norvegicus, UniProt P28565); assay: biochemical
[11] = test system: Ca2+ channel (L, verapamil site) (phenylalkylamine); assay type: binding, rat; settings: 1.0E-06 M
[12] = test system: kainate; assay type: binding, rat; settings: 1.0E-06 M
[13] = target: TRPM8 (Homo sapiens, UniProt Q7Z2W7); assay: cell-based
[14] = test system: rolipram; assay type: binding, mouse; settings: 1.0E-06 M
[15] = target: Abl kinase (h) (Homo sapiens, UniProt P00519); assay: biochemical; settings: 1.0E-06 M
[16] = target: 5-HT1B (Rattus norvegicus, UniProt P28564); assay: biochemical
[17] = target: CCK1 (CCKA) (h) (Homo sapiens, UniProt P32238); assay type: binding; settings: 1.0E-06 M
[18] = target: T2, AT1 (h) (Homo sapiens, UniProt P30556); assay type: binding; settings: 1.0E-06 M
T2 construct: host or cells: HEK-293 cells
T2 sequence (P30556 1-359): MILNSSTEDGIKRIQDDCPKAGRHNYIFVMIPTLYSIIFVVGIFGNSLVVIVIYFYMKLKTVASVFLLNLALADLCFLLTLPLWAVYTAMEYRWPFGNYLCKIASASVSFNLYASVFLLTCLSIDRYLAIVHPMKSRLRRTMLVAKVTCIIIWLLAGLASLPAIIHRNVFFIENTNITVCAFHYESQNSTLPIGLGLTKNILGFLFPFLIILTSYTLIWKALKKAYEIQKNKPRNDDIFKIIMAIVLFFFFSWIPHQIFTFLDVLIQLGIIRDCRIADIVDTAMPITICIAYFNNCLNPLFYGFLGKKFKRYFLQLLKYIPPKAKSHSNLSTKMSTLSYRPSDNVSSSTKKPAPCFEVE

[19] = target: T3, 5-HT2B (h) (Homo sapiens, UniProt P41595); assay type: binding; settings: 1.0E-06 M
T3 construct: host or cells: CHO cells

[20] = test system: PCP; assay type: binding, rat; settings: 1.0E-06 M
[21] = target: T4, human TRPC5 (hTRPC5) (Homo sapiens, UniProt Q9UL62); assay: Fluorometric calcium influx assay; assay type: cell-based; settings: indicator-assisted calcium influx, 1 pM to 1 μM, n = 8
T4 construct: The cDNAs for various full-length ion channels were subcloned into pcDNA5/TO; expressed in transfected cells

Chain of CCK1 (CCKA) (h) (P32238 whole entry): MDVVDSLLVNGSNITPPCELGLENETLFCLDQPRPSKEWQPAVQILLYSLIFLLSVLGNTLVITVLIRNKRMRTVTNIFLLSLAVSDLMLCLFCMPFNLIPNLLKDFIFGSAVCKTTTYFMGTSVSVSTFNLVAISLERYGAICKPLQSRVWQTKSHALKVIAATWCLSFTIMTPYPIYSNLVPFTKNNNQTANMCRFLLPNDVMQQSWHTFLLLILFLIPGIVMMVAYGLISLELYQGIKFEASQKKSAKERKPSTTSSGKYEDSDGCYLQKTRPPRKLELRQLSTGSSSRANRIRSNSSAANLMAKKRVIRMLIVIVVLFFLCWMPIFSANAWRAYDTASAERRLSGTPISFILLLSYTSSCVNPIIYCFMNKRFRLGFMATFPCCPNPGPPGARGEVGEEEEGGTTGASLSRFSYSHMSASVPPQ
Chain of 5-HT4e (h) (Q13639 1-378 isoform Q13639-5): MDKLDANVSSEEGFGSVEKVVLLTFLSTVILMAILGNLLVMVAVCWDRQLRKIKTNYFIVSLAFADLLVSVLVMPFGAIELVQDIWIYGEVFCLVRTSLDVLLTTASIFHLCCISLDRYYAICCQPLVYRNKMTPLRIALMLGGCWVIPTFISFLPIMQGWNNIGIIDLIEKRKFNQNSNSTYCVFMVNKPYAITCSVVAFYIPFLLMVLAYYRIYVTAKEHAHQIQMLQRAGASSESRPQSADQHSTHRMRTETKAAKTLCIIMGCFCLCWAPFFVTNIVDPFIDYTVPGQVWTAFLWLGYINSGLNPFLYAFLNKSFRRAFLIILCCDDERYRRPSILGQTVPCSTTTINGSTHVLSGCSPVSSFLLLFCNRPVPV
Chain of 5-HT1B (P28564 whole entry): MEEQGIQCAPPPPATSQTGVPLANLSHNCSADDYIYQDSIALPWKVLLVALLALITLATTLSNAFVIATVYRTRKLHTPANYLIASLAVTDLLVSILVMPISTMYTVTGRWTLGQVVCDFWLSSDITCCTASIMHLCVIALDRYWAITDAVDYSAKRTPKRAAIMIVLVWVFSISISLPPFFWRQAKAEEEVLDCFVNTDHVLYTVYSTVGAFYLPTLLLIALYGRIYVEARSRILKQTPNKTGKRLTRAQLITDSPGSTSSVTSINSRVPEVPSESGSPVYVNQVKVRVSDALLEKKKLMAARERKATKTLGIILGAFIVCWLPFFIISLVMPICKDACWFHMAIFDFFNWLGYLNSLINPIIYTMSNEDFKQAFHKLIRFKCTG
T1 sequence (P13945 whole entry): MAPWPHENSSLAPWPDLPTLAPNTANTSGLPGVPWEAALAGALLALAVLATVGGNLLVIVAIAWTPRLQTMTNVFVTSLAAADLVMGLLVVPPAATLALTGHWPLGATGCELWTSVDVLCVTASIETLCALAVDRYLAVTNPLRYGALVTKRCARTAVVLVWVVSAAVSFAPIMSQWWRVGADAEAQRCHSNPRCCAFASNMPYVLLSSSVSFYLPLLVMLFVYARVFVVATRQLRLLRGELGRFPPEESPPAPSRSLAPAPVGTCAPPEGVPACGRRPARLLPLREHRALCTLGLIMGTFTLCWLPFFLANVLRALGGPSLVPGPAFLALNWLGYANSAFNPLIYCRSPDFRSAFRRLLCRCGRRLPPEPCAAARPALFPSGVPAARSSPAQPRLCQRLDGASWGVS
Chain of 5-HT1D (P28565 whole entry): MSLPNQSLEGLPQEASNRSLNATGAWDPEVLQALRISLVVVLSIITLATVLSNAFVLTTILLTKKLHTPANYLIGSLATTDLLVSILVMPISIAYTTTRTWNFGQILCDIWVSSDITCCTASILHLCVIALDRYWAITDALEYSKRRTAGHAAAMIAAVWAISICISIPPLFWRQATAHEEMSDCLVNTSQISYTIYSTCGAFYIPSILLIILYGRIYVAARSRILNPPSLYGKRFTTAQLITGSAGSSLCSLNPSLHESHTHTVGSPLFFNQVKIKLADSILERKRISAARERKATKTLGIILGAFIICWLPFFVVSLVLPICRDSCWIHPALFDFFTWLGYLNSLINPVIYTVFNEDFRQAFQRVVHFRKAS
T3 sequence (P41595 whole entry): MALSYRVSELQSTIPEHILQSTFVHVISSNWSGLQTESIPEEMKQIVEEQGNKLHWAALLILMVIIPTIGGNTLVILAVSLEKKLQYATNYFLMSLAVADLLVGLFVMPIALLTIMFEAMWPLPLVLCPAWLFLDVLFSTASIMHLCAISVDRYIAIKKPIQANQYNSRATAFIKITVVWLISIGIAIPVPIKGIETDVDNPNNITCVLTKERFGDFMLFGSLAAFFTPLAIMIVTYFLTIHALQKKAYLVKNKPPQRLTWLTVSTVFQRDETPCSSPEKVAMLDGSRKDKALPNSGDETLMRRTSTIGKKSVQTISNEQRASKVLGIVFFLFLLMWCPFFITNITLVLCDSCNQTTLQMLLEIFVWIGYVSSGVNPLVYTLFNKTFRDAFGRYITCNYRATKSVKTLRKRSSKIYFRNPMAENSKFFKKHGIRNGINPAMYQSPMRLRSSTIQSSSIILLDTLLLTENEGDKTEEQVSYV
Chain of Abl kinase (h) (P00519 whole entry): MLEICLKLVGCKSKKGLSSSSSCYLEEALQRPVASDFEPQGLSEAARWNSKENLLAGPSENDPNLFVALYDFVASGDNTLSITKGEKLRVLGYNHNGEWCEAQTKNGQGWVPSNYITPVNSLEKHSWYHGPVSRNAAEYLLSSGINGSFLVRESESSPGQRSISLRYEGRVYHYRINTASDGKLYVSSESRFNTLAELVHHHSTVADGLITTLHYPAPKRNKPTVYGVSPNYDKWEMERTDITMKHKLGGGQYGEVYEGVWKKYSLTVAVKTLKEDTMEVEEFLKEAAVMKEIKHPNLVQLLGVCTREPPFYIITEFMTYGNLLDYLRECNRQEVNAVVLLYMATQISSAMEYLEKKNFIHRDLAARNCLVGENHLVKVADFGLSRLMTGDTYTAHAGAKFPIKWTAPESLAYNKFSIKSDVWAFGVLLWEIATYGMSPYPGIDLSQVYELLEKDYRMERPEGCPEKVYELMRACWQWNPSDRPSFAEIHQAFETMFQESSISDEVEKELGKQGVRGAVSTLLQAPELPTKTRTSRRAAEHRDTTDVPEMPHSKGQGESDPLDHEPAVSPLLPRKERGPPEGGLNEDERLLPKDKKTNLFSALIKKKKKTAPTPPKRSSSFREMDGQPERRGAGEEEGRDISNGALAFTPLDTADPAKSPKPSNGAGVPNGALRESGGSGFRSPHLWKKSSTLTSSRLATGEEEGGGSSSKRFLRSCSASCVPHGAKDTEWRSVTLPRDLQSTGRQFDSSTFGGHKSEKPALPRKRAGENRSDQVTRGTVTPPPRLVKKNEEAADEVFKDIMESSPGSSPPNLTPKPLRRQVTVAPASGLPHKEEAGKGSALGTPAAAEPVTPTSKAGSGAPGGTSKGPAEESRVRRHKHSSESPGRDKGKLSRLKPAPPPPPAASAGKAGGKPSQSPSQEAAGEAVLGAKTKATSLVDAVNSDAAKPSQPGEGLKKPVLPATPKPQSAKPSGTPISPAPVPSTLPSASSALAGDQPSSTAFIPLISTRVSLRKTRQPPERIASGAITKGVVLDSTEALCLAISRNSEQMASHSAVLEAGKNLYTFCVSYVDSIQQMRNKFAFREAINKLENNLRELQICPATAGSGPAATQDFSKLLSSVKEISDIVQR
Chain of PDE4D2 (h) (Q08499 303-809 limits assumed): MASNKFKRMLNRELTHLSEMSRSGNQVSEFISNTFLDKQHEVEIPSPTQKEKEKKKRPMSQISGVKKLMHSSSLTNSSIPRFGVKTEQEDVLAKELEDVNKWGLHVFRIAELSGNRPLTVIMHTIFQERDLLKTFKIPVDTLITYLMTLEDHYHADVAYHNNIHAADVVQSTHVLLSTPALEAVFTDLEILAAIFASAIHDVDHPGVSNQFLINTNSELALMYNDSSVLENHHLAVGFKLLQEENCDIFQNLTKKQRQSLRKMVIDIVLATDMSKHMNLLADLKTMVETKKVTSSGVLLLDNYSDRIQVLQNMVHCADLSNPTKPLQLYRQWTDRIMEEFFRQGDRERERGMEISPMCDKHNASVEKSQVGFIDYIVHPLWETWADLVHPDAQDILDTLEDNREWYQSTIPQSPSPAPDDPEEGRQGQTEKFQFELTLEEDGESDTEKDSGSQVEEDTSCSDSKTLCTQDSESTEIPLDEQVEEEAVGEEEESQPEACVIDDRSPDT

SMILES: Cn1c(=O)n(CCCO)c(=O)c2c1nc(Oc1cccc(Cl)c1)n2Cc1ccc(Cl)cc1 [HC-070]
- IC50 [1]: > 1900 nM
- concentration in brain ([2]; iv, 1 mg/kg, 2 h): 299 ± 11 nmol/kg
- concentration in brain tissue ([2]; po, 10 mg/kg, 2 h): 525 ± 72 nmol/kg
- unbound brain concentration ([2]; po, 10 mg/kg, 2 h): 1.5 nmol/kg
- MRTdisp ([2]; male, iv, 1 mg/kg): 1.9 h
- MRTtot ([2]; male, po, 10 mg/kg): 4.5 h
- effect on CCK-4 stimulated increase of postsynaptic currents ([3]; 20 nM, CCK-4 1 μM): pronounced attenuation of the CCK-4 related effect
- basal synaptic activity prior to CCK-4 addition ([3]; slices pretreated with 20 nM HC-070, n = 8): 154±35 postsynaptic currents/minute
- CS-US fear learning (freezing) [4]: without an effect; also recorded: did not affect fear learning
- fear memory expression to the CS [4]: no drug effect
- fear memory expression to the context [4]: without effect; also recorded: no drug effect
- fraction unbound [5]: 0.004
- locomotor activity [6]: not impacted

SMILES: Cn1c(=O)n(CCCO)c(=O)c2c1nc(Oc1cccc(OC(F)(F)F)c1)n2Cc1ccc(Cl)cc1 [HC-608]
- inhibition at 1 µM ([7]; read-out: % Inhibition 1st): -3.7%
- inhibition at 1 µM ([7]; read-out: % Inhibition 2nd): 10.6%
- inhibition at 1 µM ([7]; read-out: % Inhibition Mean): 3.4%
- inhibition at 1 µM ([8]; read-out: % Inhibition 1st): 1.3%
- inhibition at 1 µM ([8]; read-out: % Inhibition 2nd): -2%
- inhibition at 1 µM ([8]; read-out: % Inhibition Mean): -0.3%
- inhibition at 1 µM ([9]; read-out: % Inhibition 1st): 0.9%
- inhibition at 1 µM ([9]; read-out: % Inhibition 2nd): -6.7%
- inhibition at 1 µM ([9]; read-out: % Inhibition Mean): -2.9%
- inhibition at 1 µM ([10]; read-out: % Inhibition 1st): -4.2%
- inhibition at 1 µM ([10]; read-out: % Inhibition 2nd): -8.8%
- inhibition at 1 µM ([10]; read-out: % Inhibition Mean): -6.5%
- % Inhibition 1st [11]: 2.3%
- % Inhibition 2nd [11]: 14.5%
- % Inhibition Mean [11]: 8.4%
- % Inhibition 1st [12]: 5.9%
- % Inhibition 2nd [12]: 5.3%
- % Inhibition Mean [12]: 5.6%
- IC50 [13]: > 1640 nM
- % Inhibition 1st [14]: -4.6%
- % Inhibition 2nd [14]: 0.5%
- % Inhibition Mean [14]: -2.1%
- inhibition at 1 µM ([15]; read-out: % Inhibition 1st): 11.4%
- inhibition at 1 µM ([15]; read-out: % Inhibition 2nd): 10.2%
- inhibition at 1 µM ([15]; read-out: % Inhibition Mean): 10.8%
- inhibition at 1 µM ([16]; read-out: % Inhibition 1st): -11%
- inhibition at 1 µM ([16]; read-out: % Inhibition 2nd): -9.4%
- inhibition at 1 µM ([16]; read-out: % Inhibition Mean): -10.2%
- inhibition at 1 µM ([17]; read-out: % Inhibition 1st): -11.2%
- inhibition at 1 µM ([17]; read-out: % Inhibition 2nd): -0.4%
- inhibition at 1 µM ([17]; read-out: % Inhibition Mean): -5.8%
- inhibition at 1 µM ([18]; read-out: % Inhibition 1st): 0.5%
- inhibition at 1 µM ([18]; read-out: % Inhibition 2nd): -6%
- inhibition at 1 µM ([18]; read-out: % Inhibition Mean): -2.7%
- inhibition at 1 µM ([19]; read-out: % Inhibition 1st): 15.9%
- inhibition at 1 µM ([19]; read-out: % Inhibition 2nd): 15.8%
- inhibition at 1 µM ([19]; read-out: % Inhibition Mean): 15.9%
- % Inhibition 1st [20]: -9%
- % Inhibition 2nd [20]: -0.1%
- % Inhibition Mean [20]: -4.6%
- IC50 [21]: 6.2 ± 0.5 nM
